Source: US11999746B2, “Compounds” (GlaxoSmithKline Intellectual Property Development Limited, priority 2014, dated 2024)

Key:
[1] = biological target: T1, recombinant human Lp-PLA2 (Homo sapiens, UniProt Q13093); test: (1a) PED6 assay, recombinant human Lp-PLA2 (rhLp-PLA2); assay type: biochemical; conditions: Examples 1-167 and 413-430 were tested here, one experiment or average of multiple experiments, read-out: rhLp-PLA2 (pIC50) (converted)
T1 sequence (Q13093 22-441): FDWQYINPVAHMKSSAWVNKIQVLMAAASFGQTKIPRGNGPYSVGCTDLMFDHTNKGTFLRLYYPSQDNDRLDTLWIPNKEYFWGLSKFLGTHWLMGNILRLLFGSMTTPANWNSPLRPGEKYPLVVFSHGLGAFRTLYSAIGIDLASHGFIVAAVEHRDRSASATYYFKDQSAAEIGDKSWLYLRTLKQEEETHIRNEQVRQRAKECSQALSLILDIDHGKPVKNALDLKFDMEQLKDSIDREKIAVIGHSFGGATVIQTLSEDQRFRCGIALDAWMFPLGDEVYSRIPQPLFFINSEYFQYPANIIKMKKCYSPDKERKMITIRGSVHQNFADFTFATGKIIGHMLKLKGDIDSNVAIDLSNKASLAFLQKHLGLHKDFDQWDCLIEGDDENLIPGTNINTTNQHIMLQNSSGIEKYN
Method in brief: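 PED6 (2 μM final after 1:1 addition of 4 μM stock) cleavage by rhLp-PLA2 (4 nM working solution) in 50 mM HEPES pH 7.4, 150 mM NaCl, 1 mM CHAPS; compounds preincubated with enzyme 30 minutes, reaction 20 min at room temperature. Fluorescence at ex 480/em 540; pIC50 from curve fit.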

Lp-PLA2 in human plasma = biological target: T2, Lp-PLA2 in human plasma (Homo sapiens, UniProt Q13093); test: (3a) Lp-PLA2 human plasma Thio-PAF assay; assay type: biochemical; conditions: (3a) Thio-PAF assay, pooled human plasma; Examples 1-265 and 413-430 were tested here; read-out: pIC50 in the Lp-PLA2 human plasma assay (converted)
T2 construct: from tissue; host or cells: pooled human plasma
T2 sequence (Q13093 22-441): T1 sequence (Q13093 22-441)
Method in brief: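 Endogenous Lp-PLA2 activity in frozen pooled human plasma measured as thiol release from 2-thio-PAF, detected by CPM fluorescence (ex 380/em 485). Compound preincubation 30 min; 2-min reaction in HEPES pH 7.4 buffer with NEM, stopped with 5% TFA, read 40 min later at room temperature; values as pIC50.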

SMILES	IC50 [1] [nM]	IC50 (Lp-PLA2 in human plasma) [nM]
O=c1nc(OCc2cc(F)c(Oc3ccnc(C(F)(F)F)c3)c(F)c2)cc2n1CC1COCCN21 (stereo not drawn) [Example E107, 7-((3,5-Difluoro-4-((2-(trifluoromethyl)pyridin-4-yl)oxy)benzyl)oxy)-3,4, 11, 11a-tetra hydropyrimido[6′,1′:2,3]imidazo[5,1-c][1,4]oxazin-9(1H)-one]	0.0398	≤ 100
Cn1cc(Oc2c(F)cc(COc3cc4n(c(=O)n3)CC3COCCN43)cc2F)cn1 (stereo not drawn) [Example E108, 7-((3,5-Difluoro-4-((1-methyl-1H-pyrazol-4-yl)oxy)benzyl)oxy)-3,4,11,11a-tetrahydro pyrimido[6′,1′:2,3]imidazo[5,1-c][1,4]oxazin-9(1H)-one]	≤ 100	≤ 100
CCn1cc(Oc2c(F)cc(COc3cc4n(c(=O)n3)CC3COCCN43)cc2F)cn1 (stereo not drawn) [Example E109, 7-((4-((1-Ethyl-1H-pyrazol-4-yl)oxy)-3,5-difluorobenzyl)oxy)-3,4,11,11a-tetrahydropyrimido[6′,1′:2,3]imidazo[5,1-c][1,4]oxazin-9(1H)-one]	1.26	≤ 100
O=c1nc(OCc2cc(F)c(Oc3cnc(C(F)(F)F)nc3)c(F)c2)cc2n1CC1COCCN21 (stereo not drawn) [Example E110, 7-((3,5-Difluoro-4-((2-(trifluoromethyl)pyrimidin-5-yl)oxy)benzyl)oxy)-3,4,11,11a-tetra hydropyrimido[6′,1′:2,3]imidazo[5,1-c][1,4]oxazin-9(1H)-one]	0.501	≤ 100
N#Cc1cc(COc2cc3n(c(=O)n2)CC2COCCN32)ccc1Oc1ccc(F)c(C(F)(F)F)c1 (stereo not drawn) [Example E111, 2-(4-Fluoro-3-(trifluoromethyl)phenoxy)-5-(((9-oxo-1,3,4,9,11,11a-hexahydropyrimido[6′,1′:2,3]imidazo[5,1-c][1,4]oxazin-7-yl)oxy)methyl)benzonitrile]	≤ 1	≤ 100
CCCn1cc(Oc2c(F)cc(COc3cc4n(c(=O)n3)C[C@H]3COCCN43)cc2F)cn1 [Example E112, (S)-7-((3,5-difluoro-4-((1-propyl-1H-pyrazol-4-yl)oxy)benzyl)oxy)-3,4,11,11atetrahydropyrimido[6′,1′:2,3]imidazo[5,1-c][1,4]oxazin-9(1H)-one]	≤ 1	≤ 100
O=c1nc(OCc2cc(F)c(Oc3ccnc(C(F)(F)F)c3)c(F)c2)cc2n1C[C@H]1COCCN21 [Example E113, (S)-7-((3,5-difluoro-4-((2-(trifluoromethyl)pyridin-4-yl)oxy)benzyl)oxy)-3,4, 11, 11a tetrahydropyrimido[6′,1′:2,3]imidazo[5,1-c][1,4]oxazin-9(1H)-one]	0.0316	≤ 100
Cn1cc(Oc2c(F)cc(COc3cc4n(c(=O)n3)C[C@H]3COCCN43)cc2F)cn1 [Example E114, (S)-7-((3,5-difluoro-4-((1-methyl-1H-pyrazol-4-yl)oxy)benzyl)oxy)-3,4,11,11a-tetrahydropyrimido[6′,1′:2,3]imidazo[5,1-c][1,4]oxazin-9(1H)-one]	≤ 100	≤ 100
CCn1cc(Oc2c(F)cc(COc3cc4n(c(=O)n3)C[C@H]3COCCN43)cc2F)cn1 [Example E115, (S)-7-((4-((1-ethyl-1H-pyrazol-4-yl)oxy)-3,5-difluorobenzyl)oxy)-3,4,11,11a-tetrahydropyrimido[6′,1′:2,3]imidazo[5,1-c][1,4]oxazin-9(1H)-one]	1	≤ 100
O=c1nc(OCc2cc(F)c(F)c(F)c2)cc2n1C[C@H]1COCCN21 [Example E116, (S)-7-((3,4,5-trifluorobenzyl)oxy)-3,4,11,11atetrahydropyrimido[6′,1′:2,3]imidazo[5,1-c][1,4] oxazin-9(1H)-one]	≤ 100	≤ 100
Cc1cc(Oc2c(F)cc(COc3cc4n(c(=O)n3)C[C@@H]3COCCN43)cc2F)ccn1 [Example E117, (R)-7-((3,5-difluoro-4-((2-methylpyridin-4-yl)oxy)benzyl)oxy)-3,4,11,11atetrahydropyrimido[6′,1′:2,3]imidazo[5,1-c][1,4]oxazin-9(1H)-one]	≤ 100	≤ 100
Cc1ccc(Oc2c(F)cc(COc3cc4n(c(=O)n3)C[C@@H]3COCCN43)cc2F)cn1 [Example E118, (R)-7-((3,5-difluoro-4-((6-methylpyridin-3-yl)oxy)benzyl)oxy)-3,4,11,11atetrahydropyrimido[6′,1′:2,3]imidazo[5,1-c][1,4]oxazin-9(1H)-one]	≤ 1	≤ 100
O=c1nc(OCc2cc(F)c(Oc3ccnc(C(F)(F)F)c3)c(F)c2)cc2n1C[C@@H]1COCCN21 [Example E119, (R)-7-((3,5-difluoro-4-((2-(trifluoromethyl)pyridin-4-yl)oxy)benzyl)oxy)-3,4, 11, 11a-tetra hydropyrimido[6′,1′:2,3]imidazo[5,1-c][1,4]oxazin-9(1H)-one]	≤ 1	≤ 100
Cn1cc(Oc2c(F)cc(COc3cc4n(c(=O)n3)C[C@@H]3COCCN43)cc2F)cn1 [Example E120, (R)-7-((3,5-difluoro-4-((1-methyl-1H-pyrazol-4-yl)oxy)benzyl)oxy)-3,4,11,11a-tetrahydropyrimido[6′,1′:2,3]imidazo[5,1-c][1,4]oxazin-9(1H)-one]	≤ 100	≤ 10000
CCn1cc(Oc2c(F)cc(COc3cc4n(c(=O)n3)C[C@@H]3COCCN43)cc2F)cn1 [Example E121, (R)-7-((4-((1-ethyl-1H-pyrazol-4-yl)oxy)-3,5-difluorobenzyl)oxy)-3,4,11,11a-tetrahydropyrimido[6′,1′:2,3]imidazo[5,1-c][1,4]oxazin-9(1H)-one]	≤ 100	≤ 10000
CCCn1cc(Oc2c(F)cc(COc3cc4n(c(=O)n3)C[C@@H]3COCCN43)cc2F)cn1 [Example E122, (R)-7-((3,5-difluoro-4-((1-propyl-1H-pyrazol-4-yl)oxy)benzyl)oxy)-3,4,11,11atetrahydropyrimido[6′,1′:2,3]imidazo[5,1-c][1,4]oxazin-9(1H)-one]	≤ 100	≤ 10000
O=c1nc(OCc2cc(F)c(F)c(F)c2)cc2n1C[C@@H]1COCCN21 [Example E123, (R)-7-((3,4,5-trifluorobenzyl)oxy)-3,4,11,11atetrahydropyrimido[6′,1′:2,3]imidazo[5,1-c][1,4] oxazin-9(1H)-one]	≤ 100	≤ 10000
Cc1cc(Oc2c(F)cc(COc3cc4n(c(=O)n3)C[C@H]3COCCN43)cc2F)ccn1 [Example E124, (S)-7-((3,5-difluoro-4-((2-methylpyridin-4-yl)oxy)benzyl)oxy)-3,4,11,11atetrahydropyrimido[6′,1′:2,3]imidazo[5,1-c][1,4]oxazin-9(1H)-one]	0.501	≤ 100
Cc1ccc(Oc2c(F)cc(COc3cc4n(c(=O)n3)C[C@H]3COCCN43)cc2F)cn1 [Example E125, (S)-7-((3,5-difluoro-4-((6-methylpyridin-3-yl)oxy)benzyl)oxy)-3,4,11,11atetrahydropyrimido[6′,1′:2,3]imidazo[5,1-c][1,4]oxazin-9(1H)-one]	0.0631	≤ 100
O=c1nc(OCc2ccc(F)cc2F)cc2n1C[C@H]1COCCN21 [Example E126, (S)-7-((2,4-difluorobenzyl)oxy)-3,4,11,11a-tetrahydropyrimido[6′,1′:2,3]imidazo[5,1-c][1,4] oxazin-9(1H)-one]	≤ 100	≤ 10000
O=c1nc(OCc2cccc(F)c2F)cc2n1C[C@H]1COCCN21 [Example E127, (S)-7-((2,3-difluorobenzyl)oxy)-3,4,11,11a-tetrahydropyrimido[6′,1′:2,3]imidazo[5,1-c][1,4] oxazin-9(1H)-one]	≤ 100	≤ 100
O=c1nc(OCc2cccc(F)c2)cc2n1C[C@H]1COCCN21 [Example E128, (S)-7-((3-fluorobenzyl)oxy)-3,4,11,11a-tetrahydropyrimido[6′,1′:2,3]imidazo[5,1-c][1,4] oxazin-9(1H)-one]	10	≤ 100
O=c1nc(OCc2cc(F)cc(F)c2)cc2n1C[C@H]1COCCN21 [Example E129, (S)-7-((3,5-difluorobenzyl)oxy)-3,4,11,11a-tetrahydropyrimido[6′,1′:2,3]imidazo[5,1-c][1,4] oxazin-9(1H)-one]	≤ 100	≤ 100
O=c1nc(OCc2ccc(F)cc2F)cc2n1C[C@@H]1COCCN21 [Example E130, (R)-7-((2,4-difluorobenzyl)oxy)-3,4,11,11a-tetrahydropyrimido[6′,1′:2,3]imidazo[5,1-c][1,4] oxazin-9(1H)-one]	≤ 100	≤ 10000
